Data taken from US20110294721A1, “ANTIMICROBIAL PEPTIDES” (priority 2008, published 2011).
No end group written: not given here.

Legend:
Alternaria alternata = test: MIC in-vitro inhibition assay, antifungal (Example 2); assay type: cell-based; settings: complete inhibition of spore germination/mycelial growth; Table 1
Method: (§1) In-vitro inhibition assays were performed in sterile flat-bottom 96-well plates (Greiner bio-one, Frickenhausen). Antimicrobial peptides were dissolved in 0.01% acetic acid containing 0.2% BSA (500 μg/ml), filter sterilized and stored at −20° C. For inhibition assays dilutions of peptides ranging from 5 to 200 μg/ml were prepared and 10 μl (antibacterial assay) or 20 μl (antifungal assay) of each concentration was loaded per well.
(§2) Spores of fungi were collected by water washes of sporulating cultures grown on 2% malt extract agar and spore concentration was determined by microscopy. The concentration of the spores was adjusted to 1.5-2×10^3 spores/ml in 2% malt extract medium and 80 μl of fungal spores were added per well. The final peptide concentrations used in the fungal inhibition assays were 0, 2, 4, 10, 20, 40, and 100 μg/ml. After overnight incubation at room temperature the plate were put on a rotary shaker (300 rpm) for further two days to ensure consistantly growth. Antifungal effects of the peptides were determined by a microplate reader (Altemaria, Fusarium) at OD590 nm or by visual screening of the plates (Bottytis, Cladosporium).
(§3) The lowest peptide concentration leading to complete inhibition of bacterial growth or spore germination/mycelial growth (minimal inhibition concentration, MIC) was determined for each organism-peptide combination. For each peptide concentration two identical inhibition assays were performed.

Botrytis cinerea = test: as above; assay type: cell-based; settings: complete inhibition of spore germination/mycelial growth; Table 1
Method: as §1, §2, §3

Cladosporium herbarum = test: as above; assay type: cell-based; settings: complete inhibition of spore germination/mycelial growth; Table 1
Method: as §1, §2, §3

[1] = system: Pectobacterium carotovorum sub. carotovorum; settings: complete inhibition of bacterial growth; overnight 25° C.; Table 1
Xanthomonas vesicatoria [2] = settings: complete inhibition of bacterial growth; overnight 25° C.; Table 1
[3] = system: Pseudomonas syringae pv. tomato; settings: complete inhibition of bacterial growth; overnight 25° C.; Table 1
[4] = system: Pseudomonas syringae pv. syringae; settings: complete inhibition of bacterial growth; overnight 25° C.; Table 1
Pseudomonas corrugata [5] = settings: complete inhibition of bacterial growth; overnight 25° C.; Table 1
Pseudomonas corrugata [6] = settings: Table 2; for LC (lethal concentration): 100% inhibition after at least 4 days of incubation; for MIC: >90% inhibition, 1-2 days at 25° C.
Method: as §1
(§4) Bacteria colonies from overnight agar plate cultures were resuspended into 5 ml LB-medium or HPG-medium (OD600 nm=0.08-0.1) and diluted into LB-medium/HPG-medium (1:100). 90 μl of this suspension containing about 10^5-10^6 CFU/ml of tested bacteria were added to each well resulting in final peptide concentrations of 0, 0.5, 1, 2, 5, 10, and 20 μg/ml. […] The lowest concentration, in which there is no observable growth (>90% inhibition) is referred to as minimal inhibitory concentration (MIC). […] For each peptide concentration two identical inhibition assays were performed.

[7] = system: Clavibacter michiganensis; test: MIC and lethal concentration (LC) assay (Example 3); assay type: cell-based; settings: Table 2; for LC (lethal concentration): 100% inhibition after at least 4 days of incubation; for MIC: >90% inhibition, 1-2 days at 25° C.
Method: as §1, §4

[8] = system: Pectobacterium carotovorum; test: as above; assay type: cell-based; settings: Table 2; for LC (lethal concentration): 100% inhibition after at least 4 days of incubation; for MIC: >90% inhibition, 1-2 days at 25° C.
Method: as §1, §4

[9] = system: Pseudomonas syringae pv. syringae; test: as above; assay type: cell-based; settings: Table 2; for LC (lethal concentration): 100% inhibition after at least 4 days of incubation; for MIC: >90% inhibition, 1-2 days at 25° C.
Method: as §1, §4

[10] = system: Pseudomonas syringae pv. tomato; test: as above; assay type: cell-based; settings: Table 2; for LC (lethal concentration): 100% inhibition after at least 4 days of incubation; for MIC: >90% inhibition, 1-2 days at 25° C.
Method: as §1, §4

Xanthomonas vesicatoria [11] = test: as above; assay type: cell-based; settings: Table 2; for LC (lethal concentration): 100% inhibition after at least 4 days of incubation; for MIC: >90% inhibition, 1-2 days at 25° C.
Method: as §1, §4

[12] = system: human immundeficiency virus (HIV); assay type: cell-based; settings: HeLa cells pre-treated 30 min at 37° C.; red fluorescence after 72 h; read-out: IC50, concentration where the infection is decreased by 50% (compared to non-treated controls)
Method: Cells were pretreated with 6.3 μg/ml SP13-3 and SP13-14 or buffer for 30 min at 37° C. before addition of virus particles. […] Shown is an overlay of pictures taken under transmitted light and fluorescence after 72 hours incubation. The viability of the HeLa cells was determined by measuring the activity of the mitochondrial dehydrogenase.
To measure the activity of the designed oligopeptides against human immundeficiency virus (HIV) a fluorescence-based reporter system was used. HeLa cells (LC5-RIC) harbour a reporter gene, which regulates in dependency of HIV Rev and Tat proteins the synthesis of a red fluorescing protein. In this way the infection of the HeLa cells (LC5-RIC) is indicated and the infection rate can be quantified using a fluorescence microplate reader.
(§5) Antimicrobial oligopeptides were dissolved in 0.01% acetic acid containing 0.2% BSA (500 μg/ml), filter sterilized and stored at −20° C. […] (in 5% CO2). Afterwards, virus particles were added to the pre-treated HeLa cells and the infection was quantified by measuring red fluorescence with a fluorescence microplate reader after 72 h incubation. The viability of the HeLa cells was determined by measuring the activity of the mitochondrial dehydrogenase according to Lindl and Bauer (1994) and Mosmann (1983).

HeLa cells (LC5-RIC) = assay type: cell-based, human
Method: as §5

| Substance | LC (lethal concentration) (Pseudomonas corrugata [6]) | MIC (Pseudomonas corrugata [6]) | LC (lethal concentration) [7] [µg/mL] | MIC [7] [µg/mL] | LC (lethal concentration) [8] | MIC [8] | LC (lethal concentration) [9] | MIC [9] | LC (lethal concentration) [10] | MIC [10] | LC (lethal concentration) (Xanthomonas vesicatoria [11]) [µg/mL] | MIC (Xanthomonas vesicatoria [11]) [µg/mL] | other results |
| --- | --- | --- | --- | --- | --- | --- | --- | --- | --- | --- | --- | --- | --- |
| KRKLIFLAAFLAALALFKKR-NH2 [SP15] |  |  |  |  |  |  |  |  |  |  |  |  | Minimal inhibition concentration (MIC) (Alternaria alternata): >100 µg/mL; Minimal inhibition concentration (MIC) (Botrytis cinerea): >100 µg/mL; Minimal inhibition concentration (MIC) (Cladosporium herbarum): 40 µg/mL; Minimal inhibition concentration (MIC) [1]: >40 µg/mL; Minimal inhibition concentration (MIC) (Xanthomonas vesicatoria [2]): 20 µg/mL; Minimal inhibition concentration (MIC) [3]: 40 µg/mL; Minimal inhibition concentration (MIC) [4]: >40 µg/mL; Minimal inhibition concentration (MIC) (Pseudomonas corrugata [5]): >40 µg/mL |
| KRRILIRILKLIIKLILKKR-NH2 [SP13-5] | 10/>10 μg/ml | 10/>10 μg/ml | > 10 | 2.5 | >10/>10 μg/ml | >10/>10 μg/ml | >10/>10 μg/ml | >10/>10 μg/ml | 5.0 µg/mL | 2.5 µg/mL | 5.0 | 1.0 |  |
| KRRKAIKILKLIAKLIRKKR-NH2 [SP13-8] | 0.5 µg/mL | 0.25 µg/mL | 0.25 | 0.1 | >10/>10 μg/ml | >10/>10 μg/ml | >10/>10 μg/ml | >10/>10 μg/ml | 10/>10 μg/ml | 10/>10 μg/ml | 0.5 | 0.1 |  |
| KRRKLAFRAFRFALKAVLKK-NH2 [SP13-13] | 1.0 µg/mL | 0.25 µg/mL | 2.5 | 0.5 | >10/>10 μg/ml | >10/>10 μg/ml | 0.5/0.5 μg/ml | 0.5/0.5 μg/ml | 5.0 µg/mL | 2.5 µg/mL | 0.5 | 0.25 |  |
| KRRKLAFRLFRLFLKLVLKK-NH2 [SP13-14] | > 10 µg/mL | 2.5 µg/mL | 2 to 5 | 0.5 | >10/>10 μg/ml | >10/>10 μg/ml | 10 µg/mL | 5.0 µg/mL | 5.0 µg/mL | 2.5 µg/mL | 2.5 | 0.25 | IC50 [12]: 1.2 µM; negative/toxic effect on test cells (HeLa cells) (HeLa cells (LC5-RIC)): No negative/toxic effect |
| KRRKLIKILKLIAKLIRKKR-NH2 [SP13-7] | 2.5 µg/mL | 0.5 µg/mL | 0.5 | 0.25 | >10/>10 μg/ml | >10/>10 μg/ml | >10/>10 μg/ml | >10/>10 μg/ml | 10/>10 μg/ml | 10/>10 μg/ml | 0.25 | 0.1 |  |
